# Molecular target: T1, lipoxygenase from soybean (LOX)
# T1 construct: gene LOX1.1; such preparations are usually mainly lipoxygenase-1
# Assay: lipoxygenase inhibition assay, 96-well plate reader
# Assay type: biochemical, Glycine max
# Conditions: substrate linoleic acid; positive control; μg of standard per mL of the enzyme solution
# Excerpt: lipoxygenase inhibition assay, 96-well plate reader on lipoxygenase from soybean (LOX)
row,LOX / IC50 (μg/mL)^a,Structure (SMILES)
1,166.83 ± 7.15 µg/mL,"O=C(/C=C/c1ccc(O)c(O)c1)O[C@@H]1C[C@](O)(C(=O)O)C[C@@H](O)[C@H]1O [CHA, 5-O-Caffeoylquinic acid]"
2,92.60 ± 3.71 µg/mL,"COc1ccc2c(c1)c(CC(=O)O)c(C)n2C(=O)c1ccc(Cl)cc1 [IND, indomethacin]"
3,89.23 ± 2.13 µg/mL,"O=c1c(O)c(-c2ccc(O)c(O)c2)oc2cc(O)cc(O)c12 [QU, quercetin]"
4,162.70 ± 3.70 µg/mL,"C[C@@H]1O[C@@H](OC[C@H]2O[C@@H](Oc3c(-c4ccc(O)c(O)c4)oc4cc(O)cc(O)c4c3=O)[C@H](O)[C@@H](O)[C@@H]2O)[C@H](O)[C@H](O)[C@H]1O [RT, Quercetin 3-O-(6′′-O-α-L-rhamnopyranosyl)-β-D-glucopyranoside]"
